Experimental data from patent US5990083A, “Multicatalytic protease inhibitors” (Cephalon, Inc., priority 1997, dated 1999).

Tests used:
human MCP = target: T1, human MCP (Homo sapiens, UniProt P28074+Q99436); assay: Determination of IC50 values for MCP inhibitors (chymotrypsin-like or trypsin-like activity of MCP); assay type: biochemical; details: Table 5, first series; enzyme incubated with inhibitor 15 minutes at 37° C. prior to substrate
T1 construct: Samples of human liver and brain obtained post-mortem were used for isolation and partial purification of MCP; from tissue; host or cells: human liver and brain, post-mortem
Protocol: Samples of human liver and brain obtained post-mortem were used for isolation and partial purification of MCP by ion-exchange chromatography, ammonium sulfate precipitation, and gel filtration (e.g., Driscoll and Goldberg, Proc. Natl. Acad. Sci. 86, 787-791 (1989); Yamamoto et al., Biochim, Biophys. Acta 882, 297-304 (1986). For either starting material, tissue was homogenized in 10 volumes of 20 mM Tris-HCl (pH 7.5) containing 20% glycerol. Following centrifugation at 40,000×g for 30 minutes, proteolytic activity of the chymotrypsin-like component of MCP could be detected in the supernatant (see below). The supernatant was fractionated on a DEAE-Sepharose Fast Flow column equilibrated in homogenization buffer. For each liter of supernatant, 250 ml of resin was used. Following sample loading, the column was washed with ^~ 10 volumes homogenization buffer, and proteins were eluted with a linear NaCl gradient of from 0 to 400 mM (21 for 250 ml resin). Fractions were assayed for MCP activity, and the active fractions were pooled and subjected to precipitation with (NH4)2 SO4 at 80% saturation. Precipitated proteins were collected by centrifugation, resuspended in homogenization buffer, and loaded on a Sephacryl S300HR column (500 ml resin volume) that had been standardized using bovine serum albumin (68 kDa). A single peak of MCP activity was eluted with a molecular weight of ^~ 650 kDa. This preparation was free of other measurable proteolytic activities and maintained its MCP activity upon storage at 4° C. for >6 months. This preparation was used for most of the experiments. Further fractionation of the preparation on an hydroxyapatite-Ultrogel column (Yamamoto et al., supra) yielded a more highly purified enzyme, which according to denaturing SDS-polyacrylamide gel electrophoresis was comprised of the expected >10 subunits ranging in Mr from 20 to 35 kDa.
The procedure for MPC isolation described above generated an enzyme complex whose proteolytic activities were latent, but which could be activated by addition of low concentrations (0.02-0.05%) of SDS (Yamamoto et al., supra). The chymotrypsin-like activity was assayed according to the following procedure: in 96 well microtiter plates, human MCP was diluted 4 to 10-fold in homogenization buffer containing 0.04% SDS. A calorimetric substrate MeOSuc-EVKM-para-nitroanilide (methoxysuccinyl-Glu-Val-Lys-Met-pNa), purchased from Bachem Bioscience Inc., King of Prussia, Pennsylvania was added to a final concentration of 100 μM from a stock solution of 10 mM in dimethylsulfoxide. Reaction volumes were 200 μl per well. After incubation for various periods of time at 37° C., the concentration of free pNa was determined on a Biotech EL-340 microplate reader, reading absorption at 490 nm. Protease activity was determined under conditions in which substrate hydrolysis increased linearly with time and the change in absorption was proportional to the concentration of free pNa. Alternatively, a fluorogenic substrate was used, methoxysuccinyl-Phe-Leu-Phe-amidomethylcoumarin (Enzyme Systems Products, Dublin, Calif.), and the change in fluorescence monitored at an excitation of 390 nm, and an emission at 460 nm.
The trypsin-like activity of human MCP was assayed as described above with the following modifications. Reactions were carried out in Tris-glycerol buffer (pH 9.5) supplemented with 1 mM 2-mercaptoethanol, and the substrate was a fluorogenic substrate, Benzyloxycarbonyl--Phe--Arg--AMC (100 μM).
After incubation for various periods of time at 37° C., the concentration of free AMC was determined on a Fluoroskan II spectrofluorimeter with an excitation filter of 390 nm and an emission filter of 460 nm. Protease activity was determined under conditions in which substrate hydrolysis increased linearly with time and the change in fluorescence was proportional to the concentration of free AMC. […]

[1] = system: unweighting atrophy of the soleus muscle; assay: Inhibition of unweighting atrophy of the soleus muscle in juvenile rats (muscle protein content); assay type: in vivo, rat; details: for Protein, End (day 3 of unweighting) / Effect (%), change in protein content during day 3 of unweighting: Table 2; for Protein, End (day 3 of unweighting): 24 hours after in situ soleus injection at day 2 of unweighting, mersalyl 200 nM aqueous; for Protein, End (day 3 of unweighting) / Protein, Treatment (unweighted muscle): MCP inhibitor 1 mM in DMSO; for Effect (%), change in protein content during day 3 of unweighting: End versus Start (estimated day 2 content); for Effect (%) on unweighted muscle protein / Protein, Treatment (unweighted muscle): Table 3; for Effect (%) on unweighted muscle protein: Treatment versus Vehicle contralateral muscle; for Protein, Treatment (unweighted muscle): treated soleus, contralateral muscle received vehicle, mersalyl 200 nM
Protocol: The effect of several inhibitors on the unweighting atrophy of the soleus muscle in juvenile rats was determined. See Tischler, M. E. (1990) Metabolism 39/7: 756-763 (hereinafter "Tischler--1990") for a general discussion of the procedure.
(§1) Juvenile female Sprague-Dawley rates (80-90 g) were tail-cast, hind limb suspended as in Jetspers, S. R. and Tischler, M. E., (1984) J. Appl. Physiol. 57: 1472-1479. The animal's hind limbs were elevated above the floor of the cage with each animal housed individually. Animals had free access to food and water, and were weighed at the time of suspension and at time of termination. During the suspension period the animals were checked daily to ensure that their toes were not touching the floor of the cage, and that there was no swelling of the tail due to the cast.
Each experiment began with the suspension of 20 rats which were randomly divided into 4 groups of 5 animals each. Group A was suspended for just 2 days and provided baseline data to approximate the soleus muscle size in other animals suspended for longer times. Average body weights for the groups at the outset of the study were compared and used as a correction factor for body size differences. […] See Tischler--1990. At 2 days after unweighting commenced, an aqueous solution of mersalyl (200 nM; 4 μl/100 g initial body wt) was injected into one soleus, as described previously. The contralateral muscle was injected with a similar volume of 0.9% saline ("Vehicle"). The animals were maintained under Innovar-vet (10 μl/100 g body wt) tranquilization during the in situ injection procedure. After the injections, the animals were suspended for an additional 24 hours and the soleus was removed. Groups C and D for each experiment were used for testing each of two different embodiments of the disclosed compounds.
(§2) Animals were treated as in group B, except that 1 mM MCP inhibitor, contained in dimethysulfoxide (DMSO), was injected into the soleus of one leg and DMSO only into the contralateral soleus. Thus each experiment consisted of two control groups and the testing of MCP inhibitors of the invention. The completion of five such experiments with different pairs of inhibitors provided for an "n" value of 10 for testing each MCP inhibitor and with each tested in two different shipments of animals.
(§3) After the animal was sacrificed, the soleus was excised, trimmed of fat and connective tissue, and carefully weighed. The muscle was then homogenized in 10% trichloroacetic acid (TCA) and the precipitated protein pelleted by centrifugation. The pellet was then washed once with 10% TCA and once with ethanol:ether (1:1). The final pellet was solubilized in 4 ml of 1N sodium hydroxide. The sample was then analyzed for protein content by the biuret procedure, using albumin as a standard.
(§4) The effect of MCP inhibitors on total muscle protein content was examined primarily by paired comparison with the untreated contralateral muscle. The ratio of contents was calculated and then analyzed statistically by analysis of variance ("ANOVA"). The left leg was always the treated leg so that the protein content ratios could be compared to the non-treated control animals as well. In this way, a significant difference can be shown by comparing the protein content of the two legs, as well as the relative effectiveness of the tested MCP inhibitors. A paired student test was also performed for the effect of each separate treatment. The non-treated control data also provided an estimate of protein content of day 2. This allowed approximation of the protein changes over the 24 hours of treatment for each of the Groups B, C, and D.

[2] = system: Ile113→Thr mutant SOD-1 in human 293 cells; assay: SOD-1 levels in transiently transfected 293 cells (immunoblot); details: 5 μM, 24 hours, FIG. 5
Protocol: The human kidney cell line designated 293 (human 293 cells or 293 cells)was obtained from the American Type Culture Collection (ATCC), 12301 Parklawn Drive, Rockville, Md., 20852 (ATCC #CRL 1573) and grown in Dulbecco's modified Eagle's medium with 4.6 g/L glucose, 10% heat-inactivated horse serum (Gibco/Life Technologies Inc. Gaithersburg, Md.). The human 293 cells were maintained at 37° C. in an atmosphere of 5% CO2. The 293 cells were transiently transfected using the calcium phosphate method (Chen, C. et al., Biotechniques 6: 632 (1988). The pCMV-113 SOD-1 expression vector was introduced into 293 cells and 24 hours later, the cells were incubated with either compound 34, compound 14, or compound 24, all at a concentration of 5 μM, for a duration of 24 hours. The known MCP and other protease inhibitory compounds were solubilized in dimethyl sulfoxide (DMSO). Other 293 cell cultures were incubated with an equal volume of DMSO or left in medium only as negative controls.
Approximately 48 hours prior to receiving test compounds, 5×10^5 293 cells were seeded in 36 mm dishes and maintained at 37° C. in an atmosphere of 5% CO2. Cells were incubated with MCP inhibitors (compound 34, 14 or 24) or with DMSO as a negative control for a duration of 24 hours. Cell lysates were prepared by lysing the cells in approximately 75 μl of phosphate-buffered saline (PBS) by freeze/thaw cycling. Protein concentrations of the cell lysates were determined using the BCA method (Pierce, Rockford, Ill.) and 2 to 2.5 μg of each sample was electrophoresed on a 4-20% polyacrylamide geol (Novex, San Diego, Calif.) using a Tris/glycine/SDS (25 mM Tris/192 mM glycine/0.1% SDS) buffer system. […] Stained bands corresponding to SOD-1 protein were quantitated using a DocuGel V image analysis system and RFLPscan software (Scanalytics, Billerica, Mass.). Levels of SOD-1 are expressed as units of induction relative to the negative control (i.e., units of experimental divided by units of control).

control soleus muscle = assay: Effect of MCP inhibitors on control muscle protein content; assay type: in vivo, rat; details: Table 1; treated soleus versus vehicle-injected contralateral muscle
Source text: as §1, §2, §3
as §4, with “A paired student test was also performed for the effect of each separate treatment. The non-treated control data also provided an estimate of protein content of day 2. This allowed approximation of the protein changes over the 24 hours of treatment for each of the Groups B, C, and D.” left out

## CC(C)C[C@@H](C=NNC(N)=O)NC(=O)[C@H](CCCNC(=N)N[N+](=O)[O-])NC(=O)C(CCCCCCCCC#N)C1CCCC1 (stereo partly drawn) [Compound 16, 10-cyano-2-cyclopentyl-decanoyl-N g-nitro-L-arginyl-L-leucinal semicarbazone]
Human MCP
  IC50: 0.1 µM
[1]
  Protein, End (day 3 of unweighting): 6.0 mg/muscle
  Effect (%), change in protein content during day 3 of unweighting: -5%
  Effect (%) on unweighted muscle protein: 0%
  Protein, Treatment (unweighted muscle): 6.0 mg/muscle

## COC(CNC(=O)c1ccccc1OCC(=O)O)[CH2][Hg][OH] (stereo not drawn) [Mersalyl, reference compound]
[1]
  Protein, End (day 3 of unweighting): 6.6 mg/muscle
  Effect (%), change in protein content during day 3 of unweighting: +3%
  Effect (%) on unweighted muscle protein: 14%
  Protein, Treatment (unweighted muscle): 6.6 mg/muscle

## CC(C)C[C@@H](C=O)NC(=O)[C@H](CCCNC(=N)N[N+](=O)[O-])NC(=O)C(CCCCCCCCN1C(=O)c2ccccc2C1=O)C1CCCC1 (stereo partly drawn) [Compound 24, 2-cyclopentyl-10-N-phthalimido-decanoyl-N^g-nitro-L-arginyl-L-leucinal]
Human MCP
  IC50: 0.002 µM
[2]
  SOD-1 levels compared to controls: modestly elevated

## COC(=O)CCCCCCCC(=O)N[C@@H](CCCN=C(N)NS(=O)(=O)c1c(C)cc(OC)c(C)c1C)C(=O)N[C@H](C=O)CC(C)C [Compound 34, Monomethylazelayl-N^g-(4-methoxy,2,3,6-trimethylbenzene-1-sulfonyl)-L-arginyl-L-leucinal]
Human MCP
  IC50: 0.08 µM
Control soleus muscle
  Protein, Treatment (control muscle): 6.3 mg/muscle
[1]
  Protein, End (day 3 of unweighting): 6.6 mg/muscle
  Effect (%), change in protein content during day 3 of unweighting: +5%
  Effect (%) on unweighted muscle protein: 12%
  Protein, Treatment (unweighted muscle): 6.6 mg/muscle
[2]
  SOD-1 levels compared to controls: modestly elevated
